For assay [1], the system named is BMDM. The assay can be described thus: Induction of cytokine release in mouse BMDM cells at 0.01 to 10 uM after 24 hrs by ELISA. It is filed as functional, cell-based.
Assay [2] deals with Bacillus anthracis. The assay can be described thus: Protection against Bacillus anthracis infection in A/J mouse. The assay is classed as functional, organism-based.

The source made the active and inactive calls. The rule behind the calls is not given here.

Take `COCCOc1nc(N)c2nc(O)n(Cc3ccc(C=O)cc3)c2n1`: the result in assay [1] was Active. Also, the outcome in assay [2] was inactive.

The values above are taken from ChEMBL document CHEMBL1147075, “Immunotherapeutic activity of a conjugate of a Toll-like receptor 7 ligand” (Proc Natl Acad Sci U S A, 2007).
